From patent publication US7932277B2, “Peptide inhibitors of hepatitis C virus replication” (InterMune, Inc., priority 2007, dated 2011)
Read-outs that look alike come from different tables or passages of the source.

Legend:
[1] = target: T1, NS3/NS4A-2 (full-length HCV NS3 protease complexed with NS4A-2) (Hepatitis C virus genotype 1a, UniProt P27958); test: NS3 inhibition assay (NS3-NS4 protease assay); type: biochemical
T1 construct: Recombinant E. coli or Baculovirus full-length NS3; host or cells: E. coli or baculovirus (insect cells)
T1 sequence (P27958 1027-1657, one chain of several): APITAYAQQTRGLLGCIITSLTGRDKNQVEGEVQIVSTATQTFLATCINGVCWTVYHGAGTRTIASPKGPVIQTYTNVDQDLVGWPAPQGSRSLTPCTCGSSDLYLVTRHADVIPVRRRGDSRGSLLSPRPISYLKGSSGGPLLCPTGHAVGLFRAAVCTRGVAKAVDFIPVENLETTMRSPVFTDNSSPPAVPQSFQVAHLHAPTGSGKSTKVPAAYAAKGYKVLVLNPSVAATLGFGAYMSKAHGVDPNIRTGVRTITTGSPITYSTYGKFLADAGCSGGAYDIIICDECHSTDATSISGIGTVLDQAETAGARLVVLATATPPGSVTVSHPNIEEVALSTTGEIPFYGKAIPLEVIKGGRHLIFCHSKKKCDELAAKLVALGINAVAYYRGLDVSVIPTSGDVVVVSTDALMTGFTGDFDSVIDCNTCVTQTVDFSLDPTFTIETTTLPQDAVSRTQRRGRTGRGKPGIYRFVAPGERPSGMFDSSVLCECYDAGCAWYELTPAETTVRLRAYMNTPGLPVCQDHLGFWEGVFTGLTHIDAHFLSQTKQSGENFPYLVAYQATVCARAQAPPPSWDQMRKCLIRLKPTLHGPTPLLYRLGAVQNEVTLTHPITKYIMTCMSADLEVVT
In short: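 Full-length NS3 (E. coli-expressed at 2 nM or baculovirus-expressed at 3 nM) precomplexed with excess NS4A-2 peptide and preincubated with compound (top concentration 50 μM) for 10 min at room temperature. RETS1 substrate added; fluorescence read kinetically for 30 min (ex 335/em 495 nm). IC50 converted to Ki using Km 2.03 μM (E. coli) or 1.74 μM (baculovirus).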

[2] = system: HCV sub-genomic replicon (1377/NS3-3') in HuH-7 hepatoma cells (GS4.3); test: Quantitation by ELISA of NPTII in the HCV sub-genomic replicon, GS4.3; type: cell-based, hepatitis C virus (HCV); conditions: Hepatitis C virus, read-out: Replicon EC50
In short: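 GS4.3 cells (HuH-7 carrying HCV 1377/NS3-3′ replicon) treated 72 h at 37 °C with compound at 3-fold dilutions from 10 μM to 56 pM final, 1% DMSO, without G418. NPTII in lysates quantified by ELISA (450 nm). Signal expressed as percent of DMSO control; EC50 by 4-parameter fit.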

[3] = recombinant full-length NS3/NS4A-2, RETS1 substrate, kinetic fluorescence read, read-out: NS3-NS4 IC50
[4] = Huh-7, GS4.3 cells, 72 h incubation, NPTII ELISA

Structure (SMILES) | IC50 [1, 3] | EC50 [2, 4] | IC50 [1] | EC50 ([2]; Huh-7, 72 h)
CC[C@@H]1C[C@]1(NC(=O)[C@@H]1C[C@@H](OC(=O)N2Cc3cccc(F)c3C2)CN1C(=O)[C@@H](Nc1cccc(C)c1)C(C)C)C(=O)NS(=O)(=O)C1CC1 [Compound 49, [(3R,5S)-5-((1R,2R)-1-(cyclopropylsulfonylcarbamoyl)-2-ethylcyclopropylcarbamoyl)-1-((S)-3-methyl-2-(m-tolylamino)butanoyl)pyrrolidin-3-yl]4-fluoroisoindoline-2-carboxylate] | < 100 nM | 100 to 1000 nM | – | –
CC[C@@H]1C[C@]1(NC(=O)[C@@H]1C[C@@H](OC(=O)N2Cc3cccc(F)c3C2)CN1C(=O)[C@@H](Nc1cccc(Cl)c1)C(C)C)C(=O)NS(=O)(=O)C1CC1 [Compound 50, [(3R,5S)-1-((S)-2-(3-chlorophenylamino)-3-methylbutanoyl)-5-((1R,2R)-1-(cyclopropylsulfonylcarbamoyl)-2-ethylcyclopropylcarbamoyl)pyrrolidin-3-yl]4-fluoroisoindoline-2-carboxylate] | < 100 nM | < 100 nM | – | –
CC[C@@H]1C[C@]1(NC(=O)[C@@H]1C[C@@H](OC(=O)N2Cc3cccc(F)c3C2)CN1C(=O)[C@@H](Nc1cccc(C#N)c1)C(C)C)C(=O)NS(=O)(=O)C1CC1 [Compound 51, [(3R,5S)-1-((S)-2-(3-cyanophenylamino)-3-methylbutanoyl)-5-((1R,2R)-1-(cyclopropylsulfonylcarbamoyl)-2-ethylcyclopropylcarbamoyl)pyrrolidin-3-yl]4-fluoroisoindoline-2-carboxylate] | < 100 nM | 100 to 1000 nM | – | –
CC[C@@H]1C[C@]1(NC(=O)[C@@H]1C[C@@H](OC(=O)N2Cc3cccc(F)c3C2)CN1C(=O)[C@@H](Nc1ccc(F)c(C(F)(F)F)c1)C(C)C)C(=O)NS(=O)(=O)C1CC1 [Compound 52, [(3R,5S)-5-((1R,2R)-1-(cyclopropylsulfonylcarbamoyl)-2-ethylcyclopropylcarbamoyl)-1-((S)-2-(4-fluoro-3-(trifluoromethyl)phenylamino)-3-methylbutanoyl)pyrrolidin-3-yl]4-fluoroisoindoline-2-carboxylate] | < 100 nM | < 100 nM | – | –
CC[C@@H]1C[C@]1(NC(=O)[C@@H]1C[C@@H](OC(=O)N2Cc3cccc(F)c3C2)CN1C(=O)[C@@H](Nc1cccc(C(C)(C)C#N)c1)C(C)C)C(=O)NS(=O)(=O)C1CC1 [Compound 53, [(3R,5S)-1-((S)-2-(3-(2-cyanopropan-2-yl)phenylamino)-3-methylbutanoyl)-5-((1R,2R)-1-(cyclopropylsulfonylcarbamoyl)-2-ethylcyclopropylcarbamoyl)-pyrrolidin-3-yl]4-fluoroisoindoline-2-carboxylate] | < 100 nM | < 100 nM | – | –
CC[C@@H]1C[C@]1(NC(=O)[C@@H]1C[C@@H](OC(=O)N2Cc3cccc(Cl)c3C2)CN1C(=O)[C@@H](Nc1cccc(C(C)(C)C#N)c1)C(C)C)C(=O)NS(=O)(=O)C1CC1 [Compound 54, [(3R,5S)-1-((S)-2-(3-(2-cyanopropan-2-yl)phenylamino)-3-methylbutanoyl)-5-((1R,2R)-1-(cyclopropylsulfonylcarbamoyl)-2-ethylcyclopropylcarbamoyl)-pyrrolidin-3-yl]4-chloroisoindoline-2-carboxylate] | < 100 nM | < 100 nM | – | –
CC[C@@H]1C[C@]1(NC(=O)[C@@H]1C[C@@H](OC(=O)N2Cc3cccc(F)c3C2)CN1C(=O)[C@@H](Nc1cccc(C(F)(F)F)c1)C(C)(C)C)C(=O)NS(=O)(=O)C1CC1 [Compound 56, [(3R,5S)-5-((1R,2R)-1-(cyclopropylsulfonylcarbamoyl)-2-ethylcyclopropylcarbamoyl)-1-((S)-3,3-dimethyl-2-(3-(trifluoromethyl)phenylamino)butanoyl)pyrrolidin-3-yl]4-fluoroisoindoline-2-carboxylate] | < 100 nM | < 100 nM | – | –
CC[C@@H]1C[C@]1(NC(=O)[C@@H]1C[C@@H](OC(=O)N2Cc3cccc(F)c3C2)CN1C(=O)[C@@H](Nc1cncc(C(F)(F)F)c1)C(C)(C)C)C(=O)NS(=O)(=O)C1CC1 [Compound 57, [(3R,5S)-5-((1R,2R)-1-(cyclopropylsulfonylcarbamoyl)-2-ethylcyclopropylcarbamoyl)-1-((S)-3,3-dimethyl-2-(5-(trifluoromethyl)pyridin-3-ylamino)butanoyl)pyrrolidin-3-yl]4-fluoroisoindoline-2-carboxylate] | < 100 nM | < 100 nM | – | –
CC[C@@H]1C[C@]1(NC(=O)[C@@H]1C[C@@H](OC(=O)N2Cc3cccc(Cl)c3C2)CN1C(=O)[C@@H](Nc1cncc(C(F)(F)F)c1)C(C)(C)C)C(=O)NS(=O)(=O)C1CC1 [Compound 58, [(3R,5S)-5-((1R,2R)-1-(cyclopropylsulfonylcarbamoyl)-2-ethylcyclopropylcarbamoyl)-1-((S)-3,3-dimethyl-2-(5-(trifluoromethyl)pyridin-3-ylamino)butanoyl)pyrrolidin-3-yl]4-chloroisoindoline-2-carboxylate] | < 100 nM | < 100 nM | – | –
CC(C)[C@H](Nc1cccc(C(C)(C)C)c1)C(=O)N1C[C@H](OC(=O)N2Cc3cccc(Cl)c3C2)C[C@H]1C(=O)N[C@]1(C(=O)NS(=O)(=O)C2CC2)C[C@H]1C1CC1 [Compound 59, [(3R,5S)-1-((S)-2-(3-tert-butylphenylamino)-3-methylbutanoyl)-5-((1R,2S)-1-(cyclopropylsulfonylcarbamoyl)-2-cyclopropylcyclopropylcarbamoyl)pyrrolidin-3-yl]4-chloroisoindoline-2-carboxylate] | < 100 nM | < 100 nM | – | –
CC(C)(C)[C@H](Nc1cccc(C(F)(F)F)c1)C(=O)N1C[C@H](OC(=O)N2Cc3cccc(Cl)c3C2)C[C@H]1C(=O)N[C@]1(C(=O)NS(=O)(=O)C2CC2)C[C@H]1C1CC1 [Compound 60, [(3R,5S)-5-((1R,2S)-1-(cyclopropylsulfonylcarbamoyl)-2-cyclopropylcyclopropylcarbamoyl)-1-((S)-3,3-dimethyl-2-(3-(trifluoromethyl)phenylamino)-butanoyl)pyrrolidin-3-yl]4-chloroisoindoline-2-carboxylate] | < 100 nM | < 100 nM | – | –
C=C[C@@H]1C[C@]1(NC(=O)[C@@H]1C[C@@H](OC(=O)N2Cc3cccc(Cl)c3C2)CN1C(=O)[C@@H](Nc1nc(-c2ccc(F)nc2)cs1)C1CCCCC1)C(=O)NS(=O)(=O)C1CC1 [Compound 61, [(3R,5S)-5-(((1R,2S)-1-(cyclopropylsulfonylcarbamoyl)-2-vinylcyclopropyl)carbamoyl)-1-((S)-2-cyclohexyl-2-(4-(6-fluoropyridin-3-yl)thiazol-2-ylamino)acetyl)pyrrolidin-3-yl]-4-chloroisoindoline-2-carboxylate] | < 100 nM | < 100 nM | – | –
C=C[C@@H]1C[C@]1(NC(=O)[C@@H]1C[C@@H](OC(=O)N2Cc3cccc(Cl)c3C2)CN1C(=O)[C@@H](Nc1nc(C(F)(F)F)cs1)C1CCCCC1)C(=O)NS(=O)(=O)C1CC1 [Compound 63, [(3R,5S)-5-(((1R,2S)-1-(Cyclopropylsulfonylcarbamoyl)-2-vinylcyclopropyl)carbamoyl)-1-((S)-2-cyclohexyl-2-(4-(trifluoromethyl)thiazol-2-ylamino)acetyl)pyrrolidin-3-yl]4-chloroisoindoline-2-carboxylate] | < 100 nM | < 100 nM | – | –
CC(C)(C)[C@H](Nc1cccc(C(F)(F)F)c1)C(=O)N1C[C@H]2[C@@H]([C@H]1C(=O)NC(CC1CCC1)C(=O)C(N)=O)C2(C)C (stereo partly drawn) [Compound 68] | – | – | 100 to 1000 nM | 10000 to 50000 nM
CC[C@@H]1C[C@]1(NC(=O)[C@@H]1C[C@@H](Oc2nc3ccccc3s2)CN1C(=O)[C@@H](Nc1cccc(C(F)(F)F)c1)C(C)(C)C)C(=O)NS(=O)(=O)C1CC1 [Compound 69] | < 100 nM | < 100 nM | – | –
CC[C@@H]1C[C@]1(NC(=O)[C@@H]1C[C@@H](Oc2nc3ccccc3s2)CN1C(=O)[C@@H](Nc1cncc(C(F)(F)F)c1)C(C)(C)C)C(=O)NS(=O)(=O)C1CC1 [Compound 70] | < 100 nM | < 100 nM | – | –
CC[C@@H]1C[C@]1(NC(=O)[C@@H]1C[C@@H](OC(=O)N2Cc3cccc(Cl)c3C2)CN1C(=O)[C@@H](Nc1cccc(C(F)(F)F)c1)C(C)(C)C)C(=O)NOC(C)(C)C [Compound 71] | 100 to 1000 nM | 100 to 1000 nM | – | –
CC[C@@H]1C[C@]1(NC(=O)[C@@H]1C[C@@H](OC(=O)N2Cc3cccc(Cl)c3C2)CN1C(=O)[C@@H](Nc1cccc(C(F)(F)F)c1)C(C)(C)C)C(=O)NOCC1CC1 [Compound 72] | 100 to 1000 nM | 100 to 1000 nM | – | –
CC[C@@H]1CC1(NC(=O)[C@@H]1C[C@@H](OC(=O)N2Cc3cccc(Cl)c3C2)CN1C(=O)[C@@H](Nc1cccnc1)C(C)(C)C)C(=O)NS(=O)(=O)C1CC1 (stereo partly drawn) [Compound 74] | < 100 nM | < 100 nM | – | –
CC[C@@H]1C[C@]1(NC(=O)[C@@H]1C[C@@H](OC(=O)N2Cc3cccc(Cl)c3C2)CN1C(=O)[C@@H](Nc1cccc(N2CCOCC2)c1)C(C)(C)C)C(=O)NS(=O)(=O)C1CC1 [Compound 75] | < 100 nM | < 100 nM | – | –
CC[C@@H]1C[C@]1(NC(=O)[C@@H]1C[C@@H](OC(=O)N2Cc3cccc(Cl)c3C2)CN1C(=O)[C@@H](Nc1cccc(Oc2ccccc2)c1)C(C)(C)C)C(=O)NS(=O)(=O)C1CC1 [Compound 76] | < 100 nM | < 100 nM | – | –
